Our source for the IC50 values is the Kinase Knowledgebase extract (Sharma et al. 2016).

For this experiment, the target named is EGFR (UniProt P00533).
EGFR, sequence (P00533 whole entry, looked up): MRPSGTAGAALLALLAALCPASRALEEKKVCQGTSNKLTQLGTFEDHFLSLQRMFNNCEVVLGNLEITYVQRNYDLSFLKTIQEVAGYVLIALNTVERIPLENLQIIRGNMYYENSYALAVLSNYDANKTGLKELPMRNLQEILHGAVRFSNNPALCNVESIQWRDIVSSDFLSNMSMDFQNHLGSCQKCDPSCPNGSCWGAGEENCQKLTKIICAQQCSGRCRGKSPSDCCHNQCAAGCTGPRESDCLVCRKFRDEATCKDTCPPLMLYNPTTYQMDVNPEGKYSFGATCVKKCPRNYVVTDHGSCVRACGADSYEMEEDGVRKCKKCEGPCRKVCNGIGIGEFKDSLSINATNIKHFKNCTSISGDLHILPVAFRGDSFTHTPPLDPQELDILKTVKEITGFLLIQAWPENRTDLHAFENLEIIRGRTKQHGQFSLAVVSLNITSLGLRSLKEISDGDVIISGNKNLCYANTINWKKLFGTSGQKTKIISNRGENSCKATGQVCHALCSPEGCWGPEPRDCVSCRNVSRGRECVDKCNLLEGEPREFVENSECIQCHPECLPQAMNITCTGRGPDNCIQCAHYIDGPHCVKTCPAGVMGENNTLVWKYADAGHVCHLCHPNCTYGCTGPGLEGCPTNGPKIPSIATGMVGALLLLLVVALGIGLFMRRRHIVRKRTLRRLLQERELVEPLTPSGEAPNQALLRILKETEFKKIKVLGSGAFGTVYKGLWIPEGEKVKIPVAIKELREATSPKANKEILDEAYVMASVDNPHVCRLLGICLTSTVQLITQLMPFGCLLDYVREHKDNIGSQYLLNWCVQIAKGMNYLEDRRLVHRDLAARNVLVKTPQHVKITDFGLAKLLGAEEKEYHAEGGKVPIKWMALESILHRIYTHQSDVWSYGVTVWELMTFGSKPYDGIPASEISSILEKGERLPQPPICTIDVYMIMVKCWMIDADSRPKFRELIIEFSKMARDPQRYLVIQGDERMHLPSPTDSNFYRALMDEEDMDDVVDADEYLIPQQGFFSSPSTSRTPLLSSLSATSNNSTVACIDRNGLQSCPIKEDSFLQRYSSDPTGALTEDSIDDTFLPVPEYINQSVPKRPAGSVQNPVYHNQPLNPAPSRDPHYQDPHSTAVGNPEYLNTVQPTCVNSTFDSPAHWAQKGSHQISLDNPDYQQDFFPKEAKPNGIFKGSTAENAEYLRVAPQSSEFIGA

As usually defined, the IC50 is the point on the concentration scale where inhibition reaches its midpoint. A lower IC50 goes with greater potency in that assay. Compound `CCc1ccc(Nc2ncnn3cc(C(=O)OC)c(C)c23)cc1O` returned a concentration for half-maximal inhibition (IC50) of 0.003 to 25 µM.
As to `COC(=O)c1cc2c(Nc3ccc4c(cnn4Cc4ccccc4)c3)ncnn2c1`, the IC50 was 0.003 to 25 µM.
For `COC(=O)c1cn2ncnc(C3C(=O)Nc4ccc(S(=O)(=O)NCCN5CCOCC5)cc43)c2c1C` (stereo unspecified) the value was 0.003 to 25 µM.
For `COC(=O)c1cn2ncnc(Nc3ccc(NS(=O)(=O)c4ccccc4)c(O)c3)c2c1C` the value was 0.003 to 25 µM.
For `Cc1ccc(Nc2ncnn3cc(C)c(C)c23)cc1O` the value was 0.003 to 25 µM; for `CCOC(=O)c1cn2ncnc(Nc3ccc(C)c(O)c3)c2c1OC`, 0.003 to 25 µM; for `Cc1ccc(Nc2ncnn3cc(C(=O)OCc4ccccc4)c(C)c23)cc1O`, 0.003 to 25 µM.
Compound `COc1c(NCCCCN2CCN(C)CC2)cn2ncnc(C3C(=O)Nc4ccccc43)c12` (stereo unspecified) yielded an IC50 of 0.003 to 25 µM.
For `CCOC(=O)c1cn2ncnc(Nc3ccc(Br)cc3)c2c1CC` the value was 0.003 to 25 µM; for `COC(=O)c1cn2ncnc(Nc3cccc(C(=O)NN)c3)c2c1C`, 0.003 to 25 µM.
For the compound `COC(=O)c1cn2ncnc(C3C(=O)Nc4ccc(C(N)=O)cc43)c2c1C` (stereo unspecified), the IC50 was 0.003 to 25 µM.
`COC(=O)c1c(OC)c(OC)c2c(C3C(=O)Nc4ccccc43)ncnn12` (stereo unspecified): the IC50 was 0.003 to 25 µM.
As for `COC(=O)c1cn2ncnc(-n3c(=O)[nH]c4ccccc43)c2c1C`, the figure is 0.003 to 25 µM.
For `CCOC(=O)c1cn2ncnc(Nc3ccc(C)c(N)c3)c2c1CC` the value was 0.003 to 25 µM; for `CCOC(=O)c1cn2ncnc(C3C(=O)Nc4ccccc43)c2c1C(=O)OCC` (stereo unspecified), 0.003 to 25 µM; for `CCc1ccc(Nc2ncnn3cc(C(=O)NCCCN4CCOCC4)c(C)c23)cc1O`, 0.003 to 25 µM.
As for `COC(=O)c1cn2ncnc(Nc3ccc4c(c3)N(C(C)=O)CC4)c2c1C`, the figure is 0.003 to 25 µM; as for `COCCCNC(=O)c1cn2ncnc(C3C(=O)Nc4ccccc43)c2c1C` (stereo unspecified), 0.003 to 25 µM.
On to `CCOC(=O)c1cn2ncnc(NCCc3ccccc3)c2c1CC`, for which the IC50 was 0.003 to 25 µM.
As for `CCOC(=O)c1cn2ncnc(NCCCn3ccnc3)c2c1CC`, the figure is 0.003 to 25 µM.
In turn, `Cc1c(OCCCn2nccn2)cn2ncnc(Nc3ccc(Br)cc3F)c12` displayed an IC50 of 0.003 to 25 µM.
For `Cc1nc(C2C(=O)Nc3ccccc32)c2c(C)c(C(=O)NCCCN3CCOCC3)cn2n1` (stereo unspecified) the value was 0.003 to 25 µM; for `Fc1cc(Br)ccc1Nc1ncnn2cccc12`, 0.003 to 25 µM; for `COC(=O)c1cn2ncnc(Nc3ccc4c(=O)[nH][nH]c(=O)c4c3)c2c1C`, 0.003 to 25 µM.
As for `COC(=O)c1cn2ncnc(C3C(=O)Nc4cc(C#N)ccc43)c2c1C` (stereo unspecified), the figure is 0.003 to 25 µM.
As for `COC(=O)c1cn2ncnc(Nc3ccc(C)c([N+](=O)[O-])c3)c2c1C`, the figure is 0.003 to 25 µM; as for `COC(=O)c1cn2ncnc(Nc3ccc4[nH]nnc4c3)c2c1C`, 0.003 to 25 µM.
In the case of `COC(=O)c1cn2ncnc(C3C(=O)Nc4cc(S(C)(=O)=O)ccc43)c2c1C` (stereo unspecified), the 50% inhibitory concentration (IC50) was 0.003 to 25 µM.
As for `CCc1ccn2ncnc(Nc3ccc(C)c(O)c3)c12`, the IC50 is 0.003 to 25 µM.
For the compound `Cc1cc2c(Nc3ccc(Br)cc3F)ncnn2c1`, the IC50 was 0.003 to 25 µM.
As for `COc1ccc(Nc2ncnn3cc(C(=O)NCCCN4CCOCC4)c(C)c23)cc1O`, the figure is 0.003 to 25 µM.
For `CCOC(=O)c1cn2ncnc(NCCOC)c2c1CC`, the IC50 is 0.003 to 25 µM.
As for `COC(=O)c1cn2ncnc(C3C(=O)Nc4ccc(NS(C)(=O)=O)cc43)c2c1C` (stereo unspecified), the figure is 0.003 to 25 µM.
As for `Cc1c(C(=O)NCCN2CCOCC2)cn2ncnc(C3C(=O)Nc4ccccc43)c12` (stereo unspecified), the figure is 0.003 to 25 µM; as for `CCOC(=O)c1cn2ncnc(Nc3ccc(C)c(O)c3)c2c1-c1ccccc1`, 0.003 to 25 µM; as for `COC(=O)c1cn2ncnc(Oc3cccc(O)c3)c2c1C`, 0.003 to 25 µM.
As for `Cc1ccc(Nc2ncnn3cc(Cn4cncn4)c(C)c23)cc1O`, the figure is 0.003 to 25 µM.
As for `COC(=O)c1cn2ncnc(Nc3ccc(C)c(C#N)c3)c2c1C`, the IC50 lay in the range of 0.003 to 25 µM.
Consider `Cc1ccc(Nc2ncnn3c(C)ccc23)cc1O`, for which the half-inhibitory concentration (IC50) is 0.003 to 25 µM.
As for `CCOC(=O)c1cn2ncnc(Nc3ccc(C)c(O)c3)c2c1OCC`, the figure is 0.003 to 25 µM.
As for `Cc1ccc(Nc2ncnn3cc(C(=O)NCCCCN(C)C)c(C)c23)cc1O`, the figure is 0.003 to 25 µM; as for `CCOC(=O)c1cn2ncnc(Nc3ccc4cn[nH]c4c3)c2c1CC`, 0.003 to 25 µM; as for `CCOC(=O)c1cn2ncnc(Nc3ccc(Oc4ccccc4)cc3)c2c1CC`, 0.003 to 25 µM.
As for `COc1c(NC(=O)OCc2ccccc2)cn2ncnc(C3C(=O)Nc4ccccc43)c12` (stereo unspecified), the figure is 0.003 to 25 µM.
As to `Cc1ccc(Nc2ncnn3c(C)cc(C)c23)cc1O`, the half-maximal inhibitory concentration (IC50) was 0.003 to 25 µM.
As for `CCOC(=O)c1cn2ncnc(Nc3ccc(C)c(O)c3)c2c1Cc1ccccc1`, the figure is 0.003 to 25 µM; as for `Cc1c(N(C)C)c(CO)n2ncnc(C3C(=O)Nc4ccccc43)c12` (stereo unspecified), 0.003 to 25 µM.
As for `CCc1c(C(=O)N(C)C)cn2ncnc(Nc3ccc4c(cnn4Cc4ccccc4)c3)c12`, the figure is 0.003 to 25 µM.
As for `COC(=O)c1cn2ncnc(Nc3ccc(F)c(Cl)c3)c2c1C`, the figure is 0.003 to 25 µM; as for `CCCc1c(C(=O)OCC)cn2ncnc(Nc3ccc4c(cnn4Cc4ccccc4)c3)c12`, 0.003 to 25 µM.
For `Cc1c(OCCCn2cncn2)cn2ncnc(C3C(=O)Nc4ccccc43)c12` (stereo unspecified), the IC50 fell in the range of 0.003 to 25 µM.
As for `COC(=O)c1cn2ncnc(Nc3ccc4c(c3)OCCO4)c2c1C`, the figure is 0.003 to 25 µM; as for `CCOC(=O)c1cn2ncnc(NCC3CCCCC3)c2c1CC`, 0.003 to 25 µM; as for `CCOC(=O)c1c(CC)c2c(Nc3ccc4c(cnn4Cc4ccccc4)c3)ncnn2c1Br`, 0.003 to 25 µM.
For `CCOC(=O)c1cn2ncnc(Nc3ccc(OC)cc3)c2c1CC`, the IC50 was in the range of 0.003 to 25 µM.
For `COC(=O)c1cn2ncnc(C3C(=O)Nc4cc(C(F)(F)F)ccc43)c2c1C` (stereo unspecified) the value was 0.003 to 25 µM; for `COC(=O)c1cn2ncnc(Nc3ccc(OC)c(OC)c3)c2c1C`, 0.003 to 25 µM.
As for `COc1c(NCCCCN2CCOCC2)cn2ncnc(C3C(=O)Nc4ccccc43)c12` (stereo unspecified), the figure is 0.003 to 25 µM; as for `CCOC(=O)c1cn2ncnc(N[C@H](C)c3ccccc3)c2c1CC`, 0.003 to 25 µM; as for `COC(=O)c1cn2ncnc(Nc3ccc(Br)c(O)c3)c2c1C`, 0.003 to 25 µM.
For `CCOC(=O)c1cn2ncnc(N3CCCC4C=CC=CC43)c2c1CC` (stereo unspecified) the value was 0.003 to 25 µM; for `COC(=O)c1cn2ncnc(Nc3ccc4cc[nH]c4c3)c2c1C`, 0.003 to 25 µM; for `CCOC(=O)c1cn2ncnc(Nc3ccc(C)c(O)c3)c2c1C(C)C`, 0.003 to 25 µM.
Compound `COC(=O)c1cn2ncnc(-n3[nH]c4ccccc4c3=O)c2c1C` gave an IC50 of 0.003 to 25 µM.
For `COC(=O)c1cn2ncnc(N(C)c3ccc(C)c(O)c3)c2c1C` the value was 0.003 to 25 µM; for `COC(=O)c1cn2ncnc(C3C(=O)Nc4ccc(S(=O)(=O)NCCN5CCCC5)cc43)c2c1C` (stereo unspecified), 0.003 to 25 µM; for `COC(=O)c1cn2ncnc(Nc3ccccc3S(N)(=O)=O)c2c1C`, 0.003 to 25 µM.
As for `COc1c(C(=O)NCCCn2cncn2)cn2ncnc(C3C(=O)Nc4ccccc43)c12` (stereo unspecified), the figure is 0.003 to 25 µM.
For `COC(=O)c1cn2ncnc(Nc3ccc(Br)cc3F)c2c1C` the value was 0.003 to 25 µM; for `Cc1c(C(=O)NCCCN2CCOCC2)cn2ncnc(Nc3ccc(Br)cc3)c12`, 0.003 to 25 µM.
Turning to `COC(=O)c1cn2ncnc(Nc3ccc(OC)cc3)c2c1C`, the IC50 is 0.003 to 25 µM.
